Measured values reported in article PMC8277899, “A novel RyR1-selective inhibitor prevents and rescues sudden death in mouse models of malignant hyperthermia and heat stroke” (Nature Communications, 2021).
Values joined by “and” are separate entries in the source; they are usually repeats but may differ in a detail not shown here. Equal values may be shown once.

Tests used:
[1] = test system: soleus muscles from WT mice; assay: Muscle force in vitro, soleus from WT mice (heat contracture, twitch, tetanus); format: cell-based, mouse; design: stress (stress-frequency relationship): unit not given beside the values
Method: Muscle contraction measurement was assessed using intact soleus muscle as follows. WT and R2509C mice (8- to 20-week old) were anesthetized with an i.p. injection of sodium pentobarbital (70 mg/kg body weight) and the soleus muscles were dissected. The isolated muscles were mounted between a force transducer (UL-100; Minebea Co., Tokyo, Japan) and a fixed hook in a chamber containing Krebs solution (140 mmol/L NaCl, 5 mmol/L KCl, 2 mmol/L CaCl2, 1 mmol/L MgCl2, 1 mmol/L NaH2PO4, 25 mmol/L NaHCO3, and 11 mmol/L glucose) bubbled with 95% O2 and 5% CO2 at 25 °C. The muscle force was recorded and analyzed by LabChart v6 (AdInstruments, Dunedin, New Zealand). The muscles were stretched to determine the length which produced maximum twitch contraction in response to field stimulation for 1 msec at supramaximal voltage. For caffeine contracture studies, muscles were exposed for 2 min to Krebs solution containing 10, 15, or 20 mM caffeine. For heat-induced contracture studies, muscles were exposed to Krebs solution warmed at 27, 35, 40, and 42 °C until basal force peaked. For twitch and tetanic contraction measurements, muscles were stimulated at 1 min intervals with 20 trains of 1, 2, 5, 10, 20, 50, 100, and 200 Hz pulses. For Cpd1 treatment, muscles were incubated with Krebs solution containing 3 µM Cpd1 15 min prior to measurements. Absolute contractile force was normalized to the maximum diameter of the muscle.

[2] = test system: mice; assay: Observation of side effects in mice; format: in vivo, mouse

## CCCCCCCCn1cc(C(=O)O)c(=O)c2cc3c(cc21)OCO3 [Cpd1, 6,7-(methylenedioxy)-1-octyl-4-quinolone-3-carboxylic acid]
[1]; 3 μM Cpd1
  twitch tension: 0.08926 and 0.06376 and 0.0706 and 0.1008 and 0.09044
[1]; 3 μM Cpd1, 1 Hz
  stress (stress-frequency relationship): 0.07934 and 0.05313 and 0.0706 and 0.09238 and 0.1028
[1]; 3 μM Cpd1, 2 Hz
  stress (stress-frequency relationship): 0.07934 and 0.05313 and 0.0706 and 0.09238 and 0.1028
[1]; 3 μM Cpd1, 10 Hz
  stress (stress-frequency relationship): 0.08926 and 0.05313 and 0.0706 and 0.09238 and 0.09866
[1]; 3 μM Cpd1, 50 Hz
  stress (stress-frequency relationship): 0.7934 and 0.7651 and 0.5531 and 0.7307 and 0.4851
[2]
  side effects: no apparent side effects of Cpd1 other
